In patent publication US20020099070A1, “Dihydronaphthyridine potassium channel openers” (priority 2000, published 2002):

Tested on: primary cultured guinea-pig urinary bladder (GPB) cells
Assay: Membrane hyperpolarization (MHP) assay, DiBAC(4)3 / FLIPR
Format: cell-based
Settings: for Emax / Maximal Response (% P1075): maximal steady-state hyperpolarization, normalized to 10 μM P1075 = 100%; for Emax: read-out: Maximal Response (% P1075); for EC50: membrane hyperpolarization in GPB cells
Procedure: Compounds were evaluated for potassium channel opening activity using primary cultured guinea-pig urinary bladder (GPB) cells.
For the preparation of urinary bladder smooth muscle cells, urinary bladders were removed from male guinea-pigs (Hartley, Charles River, Wilmington, Mass.) weighing 300-400 g and placed in ice-cold Ca^2+-free Krebs solution (Composition, mM: KCl, 2.7; KH2PO4, 1.5; NaCl, 75; Na2HPO4, 9.6; Na2HPO4.7H2O, 8; MgSO4, 2; glucose, 5; HEPES, 10; pH 7.4). Cells were isolated by enzymatic dissociation as previously described with minor modifications in Klockner, U. and Isenberg, G., Pflugers Arch. 1985, 405, 329-339, hereby incorporated by reference. The bladder was cut into small sections and incubated in 5 mL of the Kreb's solution containing 1 mg/mL collagenase (Sigma, St. Louis, Mo.) and 0.2 mg/mL pronase (Calbiochem, La Jolla, Calif.) with continuous stirring in a cell incubator for 30 minutes. The mixture was then centrifuged at 1300×g for 5 minutes, and the pellet resuspended in Dulbecco's PBS (GIBCO, Gaithersburg, Md.) and recentrifuged to remove residual enzyme. The cell pellet was resuspended in 5 mL growth media (composition: Dulbecco's modified Eagle's medium supplemented with 10% fetal bovine serum, 100 units/mL penicillin, 100 units/mL streptomycin and […] amphotericin B) and further dissociated by pipetting the suspension through a flame-polished Pasteur pipette and passing it through a polypropylene mesh membrane (Spectrum, Houston, Tex.). The cell density was adjusted to 100,000 cells/mL by resuspension in growth media. Cells were plated in clear-bottomed black 96-well plates (Packard) for membrane potential studies at a density of 20,000 cells/well and maintained in a cell incubator with 90% air: 10% CO2 until confluent. Cells were confirmed to be of smooth muscle type by cytoskeletal staining using a monoclonal mouse anti human-α-smooth muscle actin (Biomeda, Foster City, Calif.).
Functional activity at potassium channels was measured by evaluating changes in membrane potential using the bis-oxonol dye DiBAC(4)3 (Molecular Probes) in a 96-well cell-based kinetic assay system, Fluorescent Imaging Plate Reader (FLIPR) (K. S. Schroeder et al., J. Biomed. Screen., v. 1 pp. 75-81 (1996)), hereby incorporated by reference. DiBAC(4)3 is an anionic potentiometric probe which partitions between cells and extracellular solution in a membrane potential-dependent manner. With increasing membrane potential (for example, K^+ depolarization), the probe fuither partitions into the cell; this is measured as an increase in fluorescence due to dye interaction with intracellular lipids and proteins. Conversely, decreasing membrane potential (hyperpolarization by potassium channel openers) evokes a decrease in fluorescence.
Confluent guinea-pig urinary bladder cells cultured in black clear-bottomed 96-well plates were rinsed twice with […] assay buffer (composition, mM: HEPES, 20; NaCl, 120; KCl, 2; CaCl2, 2; MgCl2, 1; glucose, 5; pH 7.4 at 25° C.) containing 5 μM DiBAC(4)3 and incubated with […] of the buffer in a cell incubator for 30 minutes at 37° C. to ensure dye distribution across the membrane. After recording the baseline fluorescence for 5 minutes, the reference or test compounds, prepared at 10 times the concentration in the assay buffer, were added directly to the wells. Changes in fluorescence were monitored for an additional 25 minutes. Hyperpolarization responses were corrected for any background noise and were normalized to the response observed with 10 μM of the reference compound P1075, N″-cyano-N-(tert-pentyl)-N′-(3-pyridinyl)guanidine, which was assigned as 100%. P1075 is a potent opener of smooth muscle KATP channels (Quast et al., Mol. Pharmacol., v. 43 pp. 474-481 (1993)) and was prepared using the procedures described in (Manley, J. Med. Chem. (1992) 35, 2327-2340), hereby incorporated by reference. […]

SMILES | EC50 (Cavia porcellus) | EC50 | Emax (Cavia porcellus) | Maximal Response (% P1075)
CC1=C(C#N)C(c2cc(F)c(F)cc2F)C2=C(CCNC2=O)N1 (stereo not drawn) [Example 14, 4-(2,4,5-trifluorophenyl)-3-cyano-2-methyl-4,6,7,8-tetrahydro[1,6]naphthyridin-5(1H)-one] | 2.6 µM | – | 84% | –
CC1=C(C#N)C(c2ccc(F)c(Br)c2)C2=C(CCNC2=O)N1 (stereo not drawn) [Example 3, 4-(3-bromo-4-fluorophenyl)-3-cyano-2-methyl-4 6,7,8-tetrahydro[1,6]naphthyridin-5(1H)-one] | – | 2.5 µM | – | 78 % P1075
CC1=C(C#N)C(c2ccc(F)c(Br)c2)C2=C(CCNC2=O)N1 (racemic) [Example 1, 4-(3-bromo-4-fluorophenyl)-3-cyano-2-methyl-4,6,7,8-tetrahydro[1,6]naphthyridin-5(1H)-one] | 0.052 µM | – | 83% | –
CC1=C(C#N)C(c2cccc([N+](=O)[O-])c2)C2=C(CCNC2=O)N1 (stereo not drawn) [Example 9, 4-(3-nitrophenyl)-3-cyano-2-methyl-4,6,7,8-tetrahydro[1,6]naphthyridin-5(1H)-one] | 0.62 µM | – | 106% | –
CC1=C(C#N)C(c2ccc(Br)c(Br)c2)C2=C(CCNC2=O)N1 (stereo not drawn) [Example 11, 4-(3,4-dibromophenyl)-3-cyano-2-methyl-4,6,7,8-tetrahydro[1,6]naphthyridin-5(1H)-one] | 0.023 µM | – | 105% | –
CC1=C(C#N)C(c2ccc(Cl)c(C(F)(F)F)c2)C2=C(CCNC2=O)N1 (stereo not drawn) [Example 16, 4-[4-chloro-3-(trifluoromethyl)phenyl]-3-cyano-2-methyl-4,6,7,8-tetrahydro[1,6]naphthyridin-5(1H)-one] | 0.18 µM | – | 109% | –
CC1=C(C#N)C(c2ccc(F)c(C(F)(F)F)c2)C2=C(CCNC2=O)N1 (stereo not drawn) [Example 13, 4-[4-fluoro-3-(trifluoromethyl)phenyl]-3-cyano-2-methyl-4,6,7,8-tetrahydro[1,6]naphthyridin-5(1H)-one] | 0.35 µM | – | 99% | –
CC1=C(C#N)C(c2ccc(F)c(F)c2)C2=C(CCNC2=O)N1 (stereo not drawn) [Example 12, 4-(3,4-difluorophenyl)-3-cyano-2-methyl-4,6,7,8-tetrahydro[1,6]naphthyridin-5(1H)-one] | 0.89 µM | – | 89% | –
CC1=C(C#N)C(c2ccc(Cl)c(Cl)c2)C2=C(CCNC2=O)N1 (stereo not drawn) [Example 8, 4-(3,4-dichlorophenyl)-3-cyano-2-methyl-4,6,7,8-tetahydro[1,6]naphthyridin-5(1H)-one] | – | 0.038 µM | – | 97 % P1075
CC1=C(C#N)C(c2ccc(F)c(Br)c2)c2c(cc[nH]c2=O)N1 (racemic) [Example 4, 4-(3-bromo-4-fluorophenyl)-3-cyano-2-methyl-4,6-dihydro[1,6]naphthyridin-5(1H)-one] | 0.013 µM | – | 92% | –
CC1=C(C#N)C(c2ccc(Cl)c([N+](=O)[O-])c2)C2=C(CCNC2=O)N1 (stereo not drawn) [Example 10, 4-(4-chloro-3-nitrophenyl)-3-cyano-2-methyl-4,6,7,8-tetrahydro[1,6]naphthyridin-5(1H)-one] | 0.14 µM | – | 110% | –
CC1=C(C#N)C(c2ccc(F)c(Cl)c2)C2=C(CCNC2=O)N1 (stereo not drawn) [Example 15, 4-(3-chloro-4-fluorophenyl)-3-cyano-2-methyl-4,6,7,8-tetrahydro[1,6]naphthyridin-5(1H)-one] | 0.11 µM | – | 102% | –

Continued, in another order:

EC50 (Cavia porcellus) | EC50 | SMILES | Emax (Cavia porcellus) | Maximal Response (% P1075)
14 µM | – | CC(=O)C1=C(C)NC2=C(C(=O)NCC2)C1c1ccc(F)c(Br)c1 (stereo not drawn) [Example 17, 3-acetyl-4-(3-bromo-4-fluorophenyl)-2-methyl-4,6,7,8-tetrahydro[1,6]naphthyridin-5(1H)-one] | 45% | –
0.74 µM | – | CC(=O)C1=C(C)Nc2cc[nH]c(=O)c2C1c1ccc(F)c(Br)c1 (racemic) [Example 18, 3-acetyl-4-(3-bromo-4-fluorophenyl)-2-methyl-4,6-dihydro[1,6]naphthyridin-5(1H)-one] | 83% | –
0.039 µM | – | COC(=O)C1=C(C)Nc2ccnc(Cl)c2C1c1ccc(F)c(Br)c1 (stereo not drawn) [Example 31, 4-(3-bromo-4-fluorophenyl)-5-chloro-3-(methoxycarbonyl)-2-methyl-1,4-dihydro[1,6]naphthyridine] | 93% | –
0.022 µM | – | CC1=C(C#N)C(c2ccc(F)c(Br)c2)C2=C(CCOC2=O)N1 (stereo not drawn) [Example 28, 4-(3-bromo-4-fluorophenyl)-3-cyano-2-methyl-1,4,7,8-tetrahydro-5H-pyrano[4,3-b]pyridin-5-one] | 82% | –
0.004 µM | – | CC1=C(C#N)C(c2ccc(F)c(Br)c2)c2c(ccnc2Cl)N1 (racemic) [Example 32, 4-(3-bromo-4-fluorophenyl)-5-chloro-3-cyano-2-methyl-1,4-dihydro[1,6]naphthyridine] | 91% | –
0.019 µM | – | COC(=O)C1=C(C)NC2=C(C(=O)OCC2)C1c1ccc(F)c(Br)c1 (stereo not drawn) [Example 29, 4-(3-bromo-4-fluorophenyl)-3-methoxycarbonyl-2-methyl-1,4,7,8-tetrahydro-5H-pyrano[4,3-b]pyridin-5-one] | 81% | –
0.62 µM | – | CC(=O)C1=C(C)Nc2cc[nH]c(=O)c2C1c1ccc(F)c(Br)c1 (stereo not drawn) [Example 19, 3-acetyl-4-(3-bromo-4-fluorophenyl)-2-methyl-4,6-dihydro[1,6]naphthyridin-5(1H)-one] | 104% | –
18 µM | – | O=C1NCCC2=C1C(c1ccc(F)c(Br)c1)C(C(=O)c1ccccc1)=C(c1ccccc1)N2 (stereo not drawn) [Example 20, 3-benzoyl-4-(3-bromo-4-fluorophenyl)-2-phenyl-4,6,7,8-tetrahydro[1,6]naphthyridin-5(1H)-one] | 51% | –
4 µM | – | COC(=O)C1=C(C)NC2=C(C(=O)OCC2)C1c1ccc(F)c(C(F)(F)F)c1 (stereo not drawn) [Example 30, 4-[4-fluoro-3-(trifluoromethyl)phenyl]-3-methoxycarbonyl-2-methyl-1,4,7,8-tetrahydro-5H-pyrano[4,3-b]pyridin-5-one] | 52% | –
